As usually defined, the IC50 is the concentration needed to halve the response being measured.

Experiment [1] concerns the target T1, Caspase-1 (Homo sapiens, UniProt P29466).
T1 construct: purchased Enzo Biosciences
T1 sequence (P29466 120-297 limits assumed): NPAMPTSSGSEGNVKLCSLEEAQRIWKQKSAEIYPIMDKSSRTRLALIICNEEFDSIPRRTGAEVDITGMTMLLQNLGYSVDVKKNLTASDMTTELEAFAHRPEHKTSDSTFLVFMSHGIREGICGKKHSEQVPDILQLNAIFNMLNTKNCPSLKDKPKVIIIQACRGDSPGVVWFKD
T1 sequence (P29466 317-404 limits assumed): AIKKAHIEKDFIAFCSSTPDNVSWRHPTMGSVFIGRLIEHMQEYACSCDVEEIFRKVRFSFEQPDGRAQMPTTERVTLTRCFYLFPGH
In words: Caspase-1 enzyme inhibition assay (Ac-YVAD-pNA substrate), IC50. The experiment is classed as biochemical. The protocol:
(§1) Human caspases were purchased from Enzo Biosciences and used according to the manufacturer's instructions. An exemplary caspase assay, for Caspase-1, is provided below:
Caspase-1 was diluted to 10 U/μl in assay buffer consisting of 50 mM HEPES, pH 7.4, 100 mM NaCl, 0.1% CHAPS, 1 mM EDTA, 10% glycerol and 10 mM DTT.
45 μl of assay buffer was added into ½ volume microtiter plate. The plate was allowed to equilibrate to assay temperature. 5 μl of Caspase-1 (10 U/μl) was added to each appropriate well. Two 2 blank wells containing assay buffer alone without Caspase-1 were included on the plate.
The reaction was started by the addition of 50 μl Ac-YVAD-pNA substrate, for a final substrate concentration of 200 μM. The reaction was continuously monitored at 405 nm. The data was graphed as OD405 nm vs time, and the slope was determined over the linear portion of the curve. The rates in OD/min were converted to substrate/min using an extinction coefficient for p-nitroaniline of 10,500M-1 cm-1, and were adjusted for pathlength of sample. […]

In experiment [2] the target is T2, Caspase-3 (Homo sapiens, UniProt P42574).
T2 construct: purchased Enzo Biosciences
T2 sequence (P42574 29-175 limits assumed): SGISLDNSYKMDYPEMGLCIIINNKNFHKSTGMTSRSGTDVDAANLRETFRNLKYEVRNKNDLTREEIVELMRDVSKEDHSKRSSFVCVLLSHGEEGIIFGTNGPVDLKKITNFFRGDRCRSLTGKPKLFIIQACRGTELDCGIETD
T2 sequence (P42574 176-277 limits assumed): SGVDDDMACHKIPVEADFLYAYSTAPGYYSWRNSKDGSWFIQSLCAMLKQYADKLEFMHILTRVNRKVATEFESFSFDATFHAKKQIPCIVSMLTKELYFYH
In words: Caspase-3 enzymatic inhibition assay, IC50. The experiment is classed as biochemical. The settings on record: read-out: Caspase 3 enzyme inhibition IC50. The protocol: as §1
(§2) Enzymatic assays were conducted for Caspase-3, 6 and 7 activity according to the manufacture's instructions.

For experiment [3], the target named is T3, Caspase 6 (Homo sapiens, UniProt P55212).
T3 construct: purchased Enzo Biosciences
T3 sequence (P55212 24-179 limits assumed): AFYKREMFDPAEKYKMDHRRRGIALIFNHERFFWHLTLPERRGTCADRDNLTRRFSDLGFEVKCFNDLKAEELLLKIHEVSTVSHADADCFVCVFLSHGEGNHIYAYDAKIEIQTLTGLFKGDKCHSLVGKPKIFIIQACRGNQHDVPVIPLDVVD
T3 sequence (P55212 194-293 limits assumed): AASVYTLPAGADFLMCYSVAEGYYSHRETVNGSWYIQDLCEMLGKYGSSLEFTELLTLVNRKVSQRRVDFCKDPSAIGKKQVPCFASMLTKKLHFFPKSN
In words: Caspase 6 enzymatic inhibition assay, IC50. In kind it is biochemical. The settings on record: read-out: Caspase 6 enzyme inhibition IC50. The protocol: as §1, §2

Experiment [4] has as its target T4, Caspase 7 (Homo sapiens, UniProt P55210).
T4 construct: purchased Enzo Biosciences
T4 sequence (P55210 24-198 limits assumed): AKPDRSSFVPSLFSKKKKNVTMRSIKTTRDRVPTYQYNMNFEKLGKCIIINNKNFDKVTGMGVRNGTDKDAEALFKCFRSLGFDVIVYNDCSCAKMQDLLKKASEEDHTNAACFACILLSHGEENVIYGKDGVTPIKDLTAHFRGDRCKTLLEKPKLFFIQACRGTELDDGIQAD
T4 sequence (P55210 207-303 limits assumed): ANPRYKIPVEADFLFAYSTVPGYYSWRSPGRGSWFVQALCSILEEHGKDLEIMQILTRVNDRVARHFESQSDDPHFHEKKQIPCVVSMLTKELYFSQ
The experiment in a line: Caspase 7 enzymatic inhibition assay, IC50. In kind it is biochemical. The settings on record: read-out: Caspase 7 enzyme inhibition IC50. How it is done:
as §1, §2

Experiment [5] concerns IL-1β. In words: Inhibition of LPS-stimulated IL-1β in THP-1 cells (ELISA). In kind it is cell-based, human. The settings on record: 10 micromolar. The protocol:
Compounds in the present invention were tested in THP-1 cells, a human monocyte cell line, to assess the inhibition of the inflammatory cytokine IL-1β. THP-1 cells (ATCC TIB-202) were grown in culture and seeded in 96 well plates at a concentration of 200,000 cells per well with a total volume of 150 μL. Plated cells were incubated overnight at 37 degrees C. under an atmosphere of 5% CO2. Media was removed from cells which were washed with PBS. Test compounds were diluted in DMSO stock solution and serially diluted appropriately for initial screening and IC50 determinations. LPS in serum free media (140 μL of […]) was added to each well to stimulate IL-1β production. IL-1β was measured by ELISA assay kit (R&D Systems) per the manufacturers instructions.
IC50 values for the inhibition of IL-1 in THP 1 cells were determined from dose response studies.

Regarding `C[C@H](NC(=O)C(=O)Nc1ccc(Cl)cn1)C(=O)N[C@@H](CCC(=O)O)C(=O)COc1c(F)c(F)cc(F)c1F` [Example 29, (S)-4-((S)-2-(2-((5-chloropyridin-2-yl)amino)-2-oxoacetamido)propanamido)-5-oxo-6-(2,3,5,6-tetrafluorophenoxy)hexanoic acid], the IC50 was not above 10 nM in experiment [1], not below 1000 nM in experiment [2], not below 1000 nM in experiment [3] and not below 1000 nM in experiment [4].
Take `CC(=O)c1ccc(NC(=O)C(=O)N[C@@H](C)C(=O)N[C@@H](CCC(=O)O)C(=O)COc2c(F)c(F)cc(F)c2F)cc1` [Example 30, (S)-4-((S)-2-(2-((4-acetylphenyl)amino)-2-oxoacetamido)propanamido)-5-oxo-6-(2,3,5,6-tetrafluorophenoxy)hexanoic acid]: the IC50 is not above 10 nM in experiment [1], not below 1000 nM in experiment [2], not below 1000 nM in experiment [3] and not below 1000 nM in experiment [4].
Take `C[C@H](NC(=O)C(=O)Nc1cccc(-c2nnn[nH]2)c1)C(=O)N[C@@H](CCC(=O)O)C(=O)COc1c(F)c(F)cc(F)c1F` [Example 31, (S)-4-((S)-2-(2-((3-(1H-tetrazol-5-yl)phenyl)amino)-2-oxoacetamido)propanamido)-5-oxo-6-(2,3,5,6-tetrafluorophenoxy)hexanoic acid]: the IC50 in experiment [1] was not above 10 nM; in experiment [2] it was not below 1000 nM; in experiment [3] it was not below 1000 nM; in experiment [4], not below 1000 nM.
As to `C[C@H](NC(=O)C(=O)Nc1ccccc1C#N)C(=O)N[C@@H](CCC(=O)O)C(=O)COc1c(F)c(F)cc(F)c1F` [Example 32, (S)-4-((S)-2-(2-((2-cyanophenyl)amino)-2-oxoacetamido)propanamido)-5-oxo-6-(2,3,5,6-tetrafluorophenoxy)hexanoic acid], the IC50 in experiment [1] is not above 10 nM; in experiment [2] it was not below 1000 nM; in experiment [3], not below 1000 nM; in experiment [4], not below 1000 nM.
Take `C[C@H](NC(=O)C(=O)Nc1c(F)cccc1F)C(=O)N[C@@H](CCC(=O)O)C(=O)COc1cc(C(F)(F)F)nc(C(F)(F)F)n1` [Example 33, (S)-6-((2,6-bis(trifluoromethyl)pyrimidin-4-yl)oxy)-4-((S)-2-(2-((2,6-difluorophenyl)amino)-2-oxoacetamido)propanamido)-5-oxohexanoic acid]: the IC50 is not above 10 nM in experiment [1], not below 1000 nM in experiment [2], not below 1000 nM in experiment [3] and not below 1000 nM in experiment [4].
As to `C[C@H](NC(=O)C(=O)Nc1ccc(OC(F)(F)F)cc1)C(=O)N[C@@H](CCC(=O)O)C(=O)COc1c(F)c(F)cc(F)c1F` [Example 34, (S)-5-oxo-4-((S)-2-(2-oxo-2-((4-(trifluoromethoxy)phenyl)amino)acetamido)propanamido)-6-(2,3,5,6-tetrafluorophenoxy) hexanoic acid], the IC50 is not above 10 nM in experiment [1], not below 1000 nM in experiment [2], not below 1000 nM in experiment [3] and not below 1000 nM in experiment [4].
On to `C[C@H](NC(=O)C(=O)Nc1cnc2ccccc2c1)C(=O)N[C@@H](CCC(=O)O)C(=O)COc1c(F)c(F)cc(F)c1F` [Example 35, (S)-5-oxo-4-((S)-2-(2-oxo-2-(quinolin-3-ylamino)acetamido)propanamido)-6-(2,3,5,6-tetrafluorophenoxy)hexanoic acid], for which the IC50 is not above 10 nM in experiment [1], not below 1000 nM in experiment [2], not below 1000 nM in experiment [3] and not below 1000 nM in experiment [4].
Regarding `C[C@H](NC(=O)C(=O)Nc1cccc2cccnc12)C(=O)N[C@@H](CCC(=O)O)C(=O)COc1c(F)c(F)cc(F)c1F` [Example 36, (S)-5-oxo-4-((S)-2-(2-oxo-2-(quinolin-8-ylamino)acetamido)propanamido)-6-(2,3,5,6-tetrafluorophenoxy)hexanoic acid], the IC50 is not above 10 nM in experiment [1], not below 1000 nM in experiment [2], not below 1000 nM in experiment [3] and not below 1000 nM in experiment [4].
Consider `C[C@H](NC(=O)C(=O)Nc1ccncc1)C(=O)N[C@@H](CCC(=O)O)C(=O)COc1c(F)c(F)cc(F)c1F` [Example 37, (S)-5-oxo-4-((S)-2-(2-oxo-2-(pyridin-4-ylamino)acetamido)propanamido)-6-(2,3,5,6-tetrafluorophenoxy)hexanoic acid], for which the IC50 in experiment [1] is not above 10 nM; in experiment [2], not below 1000 nM; in experiment [3] it was not below 1000 nM; in experiment [4] it was not below 1000 nM.
In the case of `C[C@H](NC(=O)C(=O)Nc1c(F)cccc1F)C(=O)N[C@H](CCC(=O)O)C(=O)COc1c(F)c(F)cc(F)c1F` [Example 38, (R)-4-((S)-2-(2-((2,6-difluorophenyl)amino)-2-oxoacetamido)propanamido)-5-oxo-6-(2,3,5,6-tetrafluorophenoxy)hexanoic acid], the IC50 is not above 10 nM in experiment [1], not below 1000 nM in experiment [2], not below 1000 nM in experiment [3] and not below 1000 nM in experiment [4].
Turning to `C[C@H](NC(=O)C(=O)Nc1ccccn1)C(=O)N[C@@H](CCC(=O)O)C(=O)COc1c(F)c(F)cc(F)c1F` [Example 39, (S)-5-oxo-4-((S)-2-(2-oxo-2-(pyridin-2-ylamino)acetamido)propanamido)-6-(2,3,5,6-tetrafluorophenoxy)hexanoic acid], the IC50 in experiment [1] was not above 10 nM; in experiment [2] it was not below 1000 nM; in experiment [3] it was not below 1000 nM; in experiment [4], not below 1000 nM.
On to `C[C@H](NC(=O)C(=O)Nc1cccnc1)C(=O)N[C@@H](CCC(=O)O)C(=O)COc1c(F)c(F)cc(F)c1F` [Example 40, (S)-5-oxo-4-((S)-2-(2-oxo-2-(pyridin-3-ylamino)acetamido)propanamido)-6-(2,3,5,6-tetrafluorophenoxy)hexanoic acid], for which the IC50 is not above 10 nM in experiment [1], not below 1000 nM in experiment [2], not below 1000 nM in experiment [3] and not below 1000 nM in experiment [4].
As for `Cc1cc(C)nc(NC(=O)C(=O)N[C@@H](C)C(=O)N[C@@H](CCC(=O)O)C(=O)COc2c(F)c(F)cc(F)c2F)n1` [Example 41, (S)-4-((S)-2-(2-((4,6-dimethylpyrimidin-2-yl)amino)-2-oxoacetamido)propanamido)-5-oxo-6-(2,3,5,6-tetrafluorophenoxy)hexanoic acid], the half-maximal inhibitory concentration (IC50) in experiment [1] was not above 10 nM; in experiment [2], not below 1000 nM; in experiment [3], not below 1000 nM; in experiment [4], not below 1000 nM.
Turning to `C[C@H](NC(=O)C(=O)Nc1ncccn1)C(=O)N[C@@H](CCC(=O)O)C(=O)COc1c(F)c(F)cc(F)c1F` [Example 42, (S)-5-oxo-4-((S)-2-(2-oxo-2-(pyrimidin-2-ylamino)acetamido)propanamido)-6-(2,3,5,6-tetrafluorophenoxy)hexanoic acid], the IC50 is not above 10 nM in experiment [1], not below 1000 nM in experiment [2], not below 1000 nM in experiment [3] and not below 1000 nM in experiment [4].
Consider `C[C@H](NC(=O)C(=O)Nc1c(F)cccc1F)C(=O)N[C@@H](CC(=O)O)C(=O)COc1c(F)c(F)cc(F)c1F` [IDN-7314, reference compound], for which, in experiment [5], the “Percent Inhibition of IL1-β” value is reported as “A (A > 90%)”.

The record behind these values is patent publication US11597703B2, “Caspase inhibitors and methods of use thereof” (Histogen Inc., priority 2019, dated 2023).
